Experiments:
[1] = system: receptor tyrosine kinase group derived from a cell membrane of MDA-MB468; test: activity of receptor tyrosine kinase group, sample for reaction MB468 (ELISA, GST-poly(Glu, Tyr) substrate); format: biochemical; conditions: for effect of inhibiting the activity of a receptor tyrosine kinase group, inhibitor combined with 4557W: Example 2, FIG. 6, 400 μM inhibitor combined with 400 μM 4557W; for effect of inhibiting the activity of a receptor tyrosine kinase group, inhibitor alone: Example 2, FIG. 6, treating solution containing 400 μM inhibitor alone; for inhibition of the activity of the receptor tyrosine kinase group: Example 1, FIG. 3, treating solution containing 400 μM inhibitor, versus sample not treated = 100%
Procedure: (§1) From five kinds of cultured cells (MDA-MB453, MDA-MB468, SKBr3, Hela and HT29), a sample for reaction was prepared. Specifically, the cultured cell and 1 ml of a cell treating solution (containing 20 mM HEPES pH7.4, 0.2% PI, 10% glycerol, 200 μM Na3VO4, and 50 mM NaF) were mixed. By pressing using a pestle, a cell membrane of the resulting mixed solution was destructed to prepare a cell solution. The resulting cell solution was centrifuged, a supernatant was discarded, and a precipitate was recovered. The recovered precipitate and a cell membrane solubilizing solution (containing 20 mM HEPES pH7.4, 1% NP40, 0.2% PI, 10% glycerol, 200 μM Na3VO4, and 50 mM NaF) were mixed. A cell membrane in the mixed solution obtained by pressing using a pestle was solubilized, and centrifuged to recover a supernatant. This supernatant was used as a sample for reaction. MDA-MB453 is a cultured cell derived from a breast cancer, and a sample for reaction prepared from this cell is designated as sample for reaction MB453. MDA-MB468 is a cultured cell derived from a breast cancer, and a sample for reaction prepared from this cell is designated as sample for reaction MB468. SKBr3 is a cultured cell derived from a breast cancer, and a sample for reaction prepared from this cell is designated as sample for reaction SKBr3. Hela is a cultured cell derived from a uterine cervical cancer, and a sample for reaction prepared from this cell is designated sample for reaction Hela. HT29 is a cultured cell derived from a large intestine cancer, and a sample for reaction prepared from this cell is designated sample for reaction HT29.
As a plate for ELISA, a glutathione-coated plate (Reacti-Bind Clear Glutathione Coated Plates, 8-well Strip (PIERCE)) was used. First, each well of the plate was washed with TBS-T (containing 25 mM Tris, 150 mM NaCl and 0.05% Tween 20) three times. Then, into each well was placed 50 μl of the substrate solution 1 containing the GST-poly (Glu, Tyr) substrate prepared in the 1 (TBS containing 5 μg/ml GST-poly (Glu, Tyr) substrate), and this was incubated at 25° C. for 1 hour while slightly shaken. After incubation, each well was washed with TBS-T two times. Further, each well was washed with 20 mM HEPES pH7.4 (containing 0.05% Tween 20) once. Like this, the GST-poly (Glu, Tyr) substrate was bound to a surface of a well of the plate for ELISA. This plate for ELISA was used in the following enzyme reaction.
First, 25 μl of the sample for reaction MB453 was dispensed into 6 tubes, respectively. Among 6 tubes, to the first tube was added 25 μl of a treating solution containing 400 μM (20 mM HEPES pH7.4, 20 mM MnCl2, 2 mM DTT, 1% NP40, 10% glycerol, 200 μM Na3VO4, 50 mM NaF, 400 μM ATP). To the second tube was added 25 μl of a treating solution containing 400 μM AG1478. To the third tube was added 25 μl of a treating solution containing 400 μM 4557W. To the fourth tube was added 25 μl of a treating solution containing 400 μM PDGF Receptor Tyrosine Kinase Inhibitor III. To the fifth tube was added 25 μl of a treating solution containing 400 μM VEGF Receptor Tyrosine Kinase Inhibitor III. To the sixth tube was added 25 μl of a treating solution containing no inhibitor. The thus obtained solutions are used as a reaction solution. Similarly, using the sample for reaction MB468, the sample for reaction SKBr3, the sample for reaction Hela and the sample for reaction HT29, samples for reaction were prepared. In order to suppress the enzyme activity of receptor tyrosine kinase, this working was performed under the condition of not higher than 4° C.
Fifty microliter of each reaction solution was placed into separate wells of the plate for ELISA, and this was incubated at 25° C. for about 30 minutes. After incubation, 100 μl of a reaction stopping solution (TBS-T containing 1 mM EDTA) was added to each well, followed by further washing with TBS-T three times. Then, each well was washed with 300 μl of StartingBlock T20 (TBS) Blocking Buffer (PIERCE). […]

[2] = system: receptor tyrosine kinase group derived from a cell membrane of SKBr3; test: activity of receptor tyrosine kinase group, sample for reaction SKBr3 (ELISA, GST-poly(Glu, Tyr) substrate); format: biochemical; conditions: Example 1, FIG. 3, treating solution containing 400 μM inhibitor, versus sample not treated = 100%
Procedure: as §1, with “Hela is a cultured cell derived from a uterine cervical cancer, and a sample for reaction prepared from this cell is designated sample for reaction Hela. HT29 is a cultured cell derived from a large intestine cancer, and a sample for reaction prepared from this cell is designated sample for reaction HT29.” left out

MDA-MB468 tumor = test: proliferation of tumor cell in a mouse body (tumor volume); format: in vivo; conditions: Comparative Example 2, FIG. 5; BALB/c nu/nu mouse with MDA-MB468 tumor; 30 mg/kg/day injected for 7 days; compared with DMSO
Procedure: MDA-MB468 used in Example 1 was cultured in a culturing solution (DMEM-F12 (Sigma) containing 10% FBS (Hyclone)) so that it became 60% confluent in a 225 cm^2 flask. The resulting cultured cells were suspended to about 1×10^7 in 100 μl of DMEM-F12, to prepare a MDA-MB468 cell solution.
A fat pad of a 10-week old female mouse (BALB/c nu/nu) was injected with 100 μl of the MDA-MB468 cell solution. After 14 days, it was confirmed that a tumor became large in a mouse body. Like this, a tumor was formed in three mice bodies.
Fourteen days after injection with the MDA-MB468 cell solution, a mouse in which a tumor had been generated was injected with an inhibitor solution. Specifically, AG1478 used in Example 1 was dissolved in 100 μl of dimethyl sulfoxide (DMSO, Sigma) to prepare an inhibitor solution 1. And, the inhibitor solution 1 was injected into a mouse to a dose of the inhibitor of 30 mg/kg/day. […]
The day when the mouse was first injected with an inhibitor solution was regarded as the first day after injection. And, on the first day, the third day, the fifth day, and the eighth day after injection, a volume of a tumor in a mouse body was measured. As a volume of a tumor, a long diameter and a short diameter of a tumor were measured, and a volume was calculated from a long diameter and a short diameter on the assumption that a shape of a tumor was an elliptic sphere.

HT29 = test: cell proliferation, CellTiter-Glo Luminescent Cell Viability Assay; format: cell-based; conditions: Comparative Example 1, FIG. 4, final concentration 1 × 10^−5 M (Table 1), cultured 3 days
Procedure: (§2) Cells were seeded on each well of a plate for culturing (96 Well Solid White Flat Bottom Polystyrene TC-Treated Microplates, Corning) at 1000 cells per well, and cultured at 37° C. for 24 hours. After culturing, an inhibitor was added to each well, and cells were further cultured at 37° C. for 3 days. As cells, five kinds of cultured cells used in Example 1 (MDA-MB453, MDA-MB468, SKBr3, Hela and HT29) were used. As the inhibitor, five kinds of inhibitors used in Example 1 (PD153035, AG1478, 4557W, PDGF Receptor Tyrosine Kinase Inhibitor III and VEGF Receptor Tyrosine Kinase Inhibitor III) were used. In Table 1, the final concentration is a concentration when the inhibitor is added to a well, and is mixed with cells.
(§3) For measuring cell proliferation, CellTiter-Glo Luminescent Cell Viability Assay (Promega) was used. This is a reagent kit which can quantitate ATP derived from a cell having the metabolism activity in a medium to measure a viable cell. First, according to a protocol attached to the kit, a measurement reagent was prepared. The measurement reagent was added at 100 μl per well, and a culturing plate was stirred with a shaker for 2 minutes. After stirring, the plate was allowed to stand for 10 minutes, and […] was measured using GENios (TECAN). Since […] is generated in proportion with an amount of ATP derived from a cell having the metabolism activity in a medium, a viable cell in a medium can be measured by measuring […].
(§4) Based on the measurement result, radar charts of FIG. 4 were produced. FIG. 4 contains a radar chart in the case of use of MDA-MB453, a radar chart in the case of use of MDA-MB468, a radar chart in the case of use of SKBr3, a radar chart in the case of use of Hela, and a radar chart in the case of use of HT29. These radar charts show a proportion of a measured value obtained by treating a cell with an inhibitor, letting a measured value when a cell was not treated with an inhibitor to be 100%. In radar charts, 1 is the case where a cell was treated with PD153035, 2 is the case where a cell was treated with AG1478, 3 is the case where a cell was treated with 4557W, 4 is the case where a cell was treated with PDGF Receptor Tyrosine Kinase Inhibitor III, and 5 is the case where a cell was treated with VEGF Receptor Tyrosine Kinase Inhibitor III.

SKBr3 = test: as above; format: cell-based; conditions: Comparative Example 1, FIG. 4, final concentration 1 × 10^−5 M (Table 1), cultured 3 days
Procedure: as §2, §3, §4

MDA-MB453 = test: as above; format: cell-based; conditions: Comparative Example 1, FIG. 4, final concentration 1 × 10^−5 M (Table 1), cultured 3 days
Procedure: as §2, §3, §4

MDA-MB468 = test: as above; format: cell-based; conditions: cultured 3 days
Procedure: as §2, §3, §4

[3] = system: receptor tyrosine kinase group derived from a cell membrane of MDA-MB453; test: activity of receptor tyrosine kinase group, sample for reaction MB453 (ELISA, GST-poly(Glu, Tyr) substrate); format: biochemical; conditions: Example 1, FIG. 3, treating solution containing 400 μM inhibitor, versus sample not treated = 100%
Procedure: as §1, with “Hela is a cultured cell derived from a uterine cervical cancer, and a sample for reaction prepared from this cell is designated sample for reaction Hela. HT29 is a cultured cell derived from a large intestine cancer, and a sample for reaction prepared from this cell is designated sample for reaction HT29.” left out

[4] = system: receptor tyrosine kinase group derived from a cell membrane of HT29; test: activity of receptor tyrosine kinase group, sample for reaction HT29 (ELISA, GST-poly(Glu, Tyr) substrate); format: biochemical; conditions: Example 1, FIG. 3, treating solution containing 400 μM inhibitor, versus sample not treated = 100%
Procedure: as §1, with “Hela is a cultured cell derived from a uterine cervical cancer, and a sample for reaction prepared from this cell is designated sample for reaction Hela. HT29 is a cultured cell derived from a large intestine cancer, and a sample for reaction prepared from this cell is designated sample for reaction HT29.” left out

[5] = Comparative Example 1, FIG. 4, final concentration 1 × 10^−6 M (Table 1)

Compound | effect of inhibiting the activity of a receptor tyrosine kinase group, inhibitor combined with 4557W [1] | effect of inhibiting the activity of a receptor tyrosine kinase group, inhibitor alone [1] | inhibition of the activity of the receptor tyrosine kinase group [1] | inhibition of proliferation of a tumor cell in a mouse body (change in volume of tumor) (MDA-MB468 tumor) | inhibition of proliferation (MDA-MB468; [5]) | further results
COc1cc2ncnc(N3CCN(C(=O)Nc4ccc(Oc5ccccc5)cc4)CC3)c2cc1OC | high activity inhibiting effect | little effect | – | – | – | –
CCCNC(=O)Nc1ccc(Oc2ncnc3cc(OC)c(OC)cc23)cc1Cl | high activity inhibiting effect | little effect | – | – | – | –
COc1cc2ncnc(Nc3ccc(OCc4ccccc4)cc3)c2cc1OC [4557W] | – | highest activity inhibiting effect | inhibited | recognized | – | inhibition of the activity of the receptor tyrosine kinase group [2]: inhibited; inhibition of proliferation (HT29): recognized; inhibition of proliferation (SKBr3): recognized; inhibition of proliferation (MDA-MB453): recognized; inhibition of proliferation (MDA-MB468; Comparative Example 1, FIG. 4, final concentration 1 × 10^−5 M (Table 1)): recognized; inhibition of the activity of the receptor tyrosine kinase group [3]: inhibited; inhibition of the activity of the receptor tyrosine kinase group [4]: inhibited
COc1cc2ncnc(Nc3cccc(Cl)c3)c2cc1OC [AG1478] | – | – | inhibited | recognized | recognized | –
COc1cc2ncnc(Nc3cccc(Br)c3)c2cc1OC [PD153035] | – | – | inhibited | – | recognized | –
